Among the data in PubChem BioAssay (NCI) are TGI and GI50 values, retold here.

Some test systems named below: HCC-2998 colon; HCT-116 colon; HOP-92 NSCLC; NCI-H226 lung; OVCAR-3 ovarian; SF-295 CNS; SK-MEL-28 melanoma; SNB-19 CNS; SNB-75 CNS; UACC-62 melanoma; OVCAR-5 ovarian.
Holding throughout (test): NCI tumour cell line growth inhibition, 48 h

Each structure is given as a SMILES string. Values joined by “and” are separate entries in the source; they are usually repeats but may differ in a detail not shown here. Equal entries are not always repeated.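 The compound was tested at five concentrations on cells cultured in 96-well plates, with a 48-hour exposure period. At the GI50, growth is halved. Definition used: TGI = concentration required for complete inhibition of growth.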 Bounds are passed on as bounds.

Turning to `CCCC(C)NC1=C(NC(C)=O)C(=O)c2ccccc2C1=O` (stereo unspecified), the TGI in the test on HCC-2998 colon, in the test with HCT-116 colon, in the test on HOP-92 NSCLC, with NCI-H226 lung, with OVCAR-3 ovarian and in the test with SF-295 CNS was over 100 µM each time. Besides, the TGI in the test on SK-MEL-28 melanoma, with SNB-19 CNS, with SNB-75 CNS and in the test with UACC-62 melanoma was over 100 µM in each case.

As to `CCc1ccc2oc(-c3cc(O)c(-c4nc5cc(CC)ccc5o4)cc3O)nc2c1`, the TGI in the test with HCC-2998 colon, in the test with HCT-116 colon, in the test on HOP-92 NSCLC, with NCI-H226 lung, in the test with OVCAR-5 ovarian and in the test with SK-MEL-28 melanoma was over 100 µM each time. For the same compound, the TGI with SNB-19 CNS, with SNB-75 CNS and with UACC-62 melanoma was over 100 µM each time.

Take `Nn1c(CCCCCCCCc2nnc(COc3ccc(Cl)cc3)n2N)nnc1COc1ccc(Cl)cc1`: the TGI in the test with HCC-2998 colon, with HCT-116 colon, in the test on HOP-92 NSCLC, with NCI-H226 lung, with OVCAR-5 ovarian and in the test on SF-295 CNS was over 100 µM throughout. Moreover, the TGI in the test with SK-MEL-28 melanoma, with SNB-19 CNS, with SNB-75 CNS and in the test on UACC-62 melanoma was over 100 µM in each case.

As for `CC(=O)O[C@H]1C#C/C=C\C#CC[C@@H]2C(=O)N[C@@H]12`, the TGI with HCC-2998 colon was over 100 µM; in the test on HCT-116 colon it was over 100 µM; in the test with HOP-92 NSCLC, 98.9 µM; in the test on NCI-H226 lung, 90.8 µM; in the test on OVCAR-3 ovarian, over 100 µM; with OVCAR-5 ovarian it was over 100 µM. Besides, the TGI is over 100 µM in the test with SF-295 CNS; over 100 µM in the test with SK-MEL-28 melanoma; over 100 µM in the test on SNB-19 CNS; over 90.7 µM in the test with SNB-75 CNS; over 100 µM in the test on UACC-62 melanoma.

With `O=c1c2ncn(COCCCl)c2n(-c2ccccc2)c(=S)n1-c1ccccc1`, the TGI in the test with HCC-2998 colon, in the test on HCT-116 colon, with HOP-92 NSCLC, in the test on NCI-H226 lung, with OVCAR-3 ovarian and in the test with OVCAR-5 ovarian was over 100 µM throughout. Further, the TGI in the test on SF-295 CNS, with SK-MEL-28 melanoma, in the test with SNB-19 CNS, in the test with SNB-75 CNS and in the test on UACC-62 melanoma was over 100 µM throughout.

Turning to `Cc1ccn2c(=O)cc(-c3ccccc3)nc2c1`, the TGI in the test with HCC-2998 colon, in the test on HCT-116 colon, with HOP-92 NSCLC, with NCI-H226 lung, in the test on OVCAR-3 ovarian and in the test with OVCAR-5 ovarian was over 100 µM in each case. Further, the TGI in the test on SF-295 CNS, in the test with SK-MEL-28 melanoma, in the test on SNB-19 CNS, in the test on SNB-75 CNS and with UACC-62 melanoma was over 100 µM each time.

For `Cc1ccc(/C(O)=C/C(=O)C(=O)/C=C(\O)c2ccc(C)cc2C)c(C)c1`, the TGI with HCC-2998 colon is 4.09 µM; in the test with HCT-116 colon, 6.58 µM; in the test with HOP-92 NSCLC, 8.6 µM; in the test on NCI-H226 lung, 4.51 µM; with OVCAR-3 ovarian it was 3.51 µM; with OVCAR-5 ovarian, 3.88 µM. Besides, the TGI in the test with SF-295 CNS worked out at 3.38 µM; in the test with SK-MEL-28 melanoma, 3.84 µM; in the test with SNB-19 CNS, 5.67 µM; in the test with SNB-75 CNS, 4.19 µM; with UACC-62 melanoma, 3.38 µM.

On to `COc1cc(CNc2ccc(SC)cc2)cc(OC)c1OC`, for which the GI50 is 11 µM and 4.92 µM in the test with HCC-2998 colon; 15.2 µM and 6.16 µM with HOP-92 NSCLC; 26.4 µM and 11.9 µM in the test with NCI-H226 lung; 8.24 µM and 3.57 µM in the test on SF-295 CNS; 23.7 µM and 5.71 µM in the test with SK-MEL-28 melanoma; 25.4 µM and 10.1 µM in the test on SNB-19 CNS. The GI50 with SNB-75 CNS was 15.7 µM and 6.28 µM; in the test on UACC-62 melanoma, 10.7 µM and 4.64 µM. In addition, the TGI with HCC-2998 colon is > 60 µM and 26.6 µM; in the test on HCT-116 colon, 51.1 µM and 35.4 µM; with HOP-92 NSCLC it was > 96.1 µM and 47.6 µM; in the test on NCI-H226 lung, > 100 µM and 84.7 µM; in the test on OVCAR-3 ovarian it was 54.1 µM and 19.6 µM; with OVCAR-5 ovarian it was > 92.1 µM and 87.3 µM. Also, the TGI in the test on SF-295 CNS was 53.8 µM and 22.1 µM; with SK-MEL-28 melanoma, 99.4 µM and > 76.9 µM; in the test on SNB-19 CNS it was over 100 µM; with SNB-75 CNS it was 86.3 µM and 65.5 µM; in the test on UACC-62 melanoma it was > 80.7 µM and 51.1 µM.

In the case of `CN(O)C(=O)c1cccc(Cl)c1`, the TGI with HCC-2998 colon, in the test with HCT-116 colon, in the test on HOP-92 NSCLC, with NCI-H226 lung, in the test on OVCAR-3 ovarian and in the test on OVCAR-5 ovarian was over 100 µM each time. The TGI in the test on SF-295 CNS, in the test on SK-MEL-28 melanoma, in the test on SNB-19 CNS, in the test on SNB-75 CNS and in the test with UACC-62 melanoma was over 100 µM in each case.

With `CCOC(=O)/C=C(/C(=O)OCC)n1ccc(N)nc1=O`, the TGI in the test on HCC-2998 colon, in the test with HCT-116 colon, in the test on HOP-92 NSCLC, in the test with NCI-H226 lung, in the test with OVCAR-3 ovarian and in the test on OVCAR-5 ovarian was over 100 µM in each case. For the same compound, the TGI in the test with SF-295 CNS, in the test on SK-MEL-28 melanoma, in the test with SNB-19 CNS, in the test with SNB-75 CNS and in the test on UACC-62 melanoma was over 100 µM each time.

For `C=CCCC(=O)CC(O)(C(F)(F)F)C(F)(F)F`, the TGI with HCC-2998 colon, with HCT-116 colon, in the test with HOP-92 NSCLC, with NCI-H226 lung, in the test with OVCAR-3 ovarian and in the test with OVCAR-5 ovarian was over 100 µM each time. In addition, the TGI with SF-295 CNS, with SK-MEL-28 melanoma, with SNB-19 CNS, in the test on SNB-75 CNS and in the test with UACC-62 melanoma was over 100 µM each time.

As for `Cc1ccc2c(c1)[nH]c1cc(C(F)(F)F)ccc1[p+]2=O` (stereo unspecified), the TGI in the test with HCC-2998 colon is over 100 µM; in the test with HCT-116 colon it was over 100 µM; in the test on HOP-92 NSCLC, 54.5 µM; in the test with NCI-H226 lung it was 70.5 µM; with OVCAR-3 ovarian, over 100 µM; in the test with OVCAR-5 ovarian it was over 100 µM. Further, the TGI in the test with SF-295 CNS is 81.9 µM; in the test on SK-MEL-28 melanoma, over 100 µM; in the test on SNB-19 CNS, 76.7 µM; in the test on SNB-75 CNS, 55.9 µM; with UACC-62 melanoma, 54.9 µM.
